Reference: patent US20260022142A1, “MACROCYCLIC IMMUNOMODULATORS” (Bristol-Myers Squibb Company, priority 2022, published 2026)
Bridge positions count the residues as written; N and C are the ends. Square brackets hold non-standard residues; d marks the D form. Peptide text beside a SMILES is read from it. * marks the point of attachment. ξ: configuration not given here. Bip = N[C@@H](Cc1ccc(-c2ccccc2)cc1)C(=O)O; Phe(3-Me) = Cc1cccc(C[C@H](N)C(=O)O)c1; Val(3-OH) = CC(C)(O)[C@H](N)C(=O)O; Cha = N[C@@H](CC1CCCCC1)C(=O)O; Thr(3ξ) = CC(O)[C@H](N)C(=O)O; NMeNle = CCCC[C@H](NC)C(=O)O; 12Ado = NCCCCCCCCCCCC(=O)O; Carboxymethyl = O=C(O)C*; Orn = NCCC[C@H](N)C(=O)O; Aun = NCCCCCCCCCCC(=O)O; Dab = NCC[C@H](N)C(=O)O

Target: T1, PD-1/PD-L1 interaction (PE-labeled human PD-L1-Ig binding to Jurkat cell line over-expressing human PD-1) (Homo sapiens, UniProt Q15116)
T1 construct: expressed in transfected cells; host or cells: Jurkat
T1 sequence (Q15116 25-288): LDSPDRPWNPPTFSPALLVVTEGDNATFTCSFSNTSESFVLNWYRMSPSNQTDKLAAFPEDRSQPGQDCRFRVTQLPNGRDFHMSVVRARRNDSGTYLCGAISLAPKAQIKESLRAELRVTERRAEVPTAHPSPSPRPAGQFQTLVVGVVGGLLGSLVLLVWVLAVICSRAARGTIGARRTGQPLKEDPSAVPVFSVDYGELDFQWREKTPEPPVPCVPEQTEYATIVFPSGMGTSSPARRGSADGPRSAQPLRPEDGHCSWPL
Test: Jurkat-PD-1 Cell Binding High-Content Screening Assay (CBA)
Assay type: cell-based
Conditions: Jurkat cell line over-expressing human PD-1; PE-labeled PD-L1-Ig 20 nM final; read-out: Jurkat hPD1-PDL1 IC50
Outline: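 Binding of fluorescent PD-L1-Ig (20 nM final) to Jurkat-PD-1 cells was measured by automated imaging after 1 h, following a 2 h compound pre-treatment at 37° C.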

Compound | IC50 [µM]
Cc1cccc(C[C@@H]2NC(=O)[C@H](CC(=O)O)NC(=O)[C@H](Cc3ccc(OCC(=O)O)cc3)NC(=O)[C@H](CCN)NC(=O)CSC[C@@H](C(=O)N[C@@H](CCN)C(=O)NCCCCCCCCCCC(=O)O)NC(=O)[C@H](CO)NC(=O)[C@H](Cc3cnc[nH]3)NC(=O)[C@H](CC3CCCCC3)NC(=O)[C@H](CCN)NC(=O)[C@@H](CC(C)C)NC(=O)[C@H](CCCN)NC(=O)[C@H](Cc3ccc(OCC(=O)O)cc3)NC(=O)[C@H](Cc3ccc(-c4ccccc4)cc3)NC(=O)[C@H](Cc3ccc(OCC(=O)O)cc3)NC2=O)c1 [Compound 3632] ({CH2CO}-[Dab]Y(Carboxymethyl)D[Phe(3-Me)]Y(Carboxymethyl)[Bip]Y(Carboxymethyl)[Orn][dL][Dab][Cha]HSC[Dab][Aun]-OH; thioether N-14) | 0.0087
Cc1cccc(C[C@@H]2NC(=O)[C@H](CC(=O)O)NC(=O)[C@H](Cc3ccc(OCC(=O)O)cc3)NC(=O)[C@H](CCN)NC(=O)CSC[C@@H](C(=O)N[C@@H](CCN)C(=O)NCCCCCCCCCCC(=O)O)NC(=O)[C@H](Cc3cnc[nH]3)NC(=O)[C@H](C(C)O)NC(=O)[C@H](CC3CCCCC3)NC(=O)[C@H](CCN)NC(=O)[C@@H](CC(C)C)NC(=O)[C@H](CCCN)NC(=O)[C@H](Cc3ccc(OCC(=O)O)cc3)NC(=O)[C@H](Cc3ccc(-c4ccccc4)cc3)NC(=O)[C@H](Cc3ccc(OCC(=O)O)cc3)NC2=O)c1 (stereo partly drawn) [Compound 3633] ({CH2CO}-[Dab]Y(Carboxymethyl)D[Phe(3-Me)]Y(Carboxymethyl)[Bip]Y(Carboxymethyl)[Orn][dL][Dab][Cha][Thr(3ξ)]HC[Dab][Aun]-OH; thioether N-14) | 0.0086
Cc1cccc(C[C@@H]2NC(=O)[C@H](CC(=O)O)NC(=O)[C@H](Cc3ccc(OCC(=O)O)cc3)NC(=O)[C@H](CCN)NC(=O)CSC[C@@H](C(=O)N[C@@H](CCN)C(=O)NCCCCCCCCCCC(=O)O)NC(=O)[C@H](CCCN)NC(=O)[C@H](C(C)(C)O)NC(=O)[C@H](CC3CCCCC3)NC(=O)[C@H](CCN)NC(=O)[C@@H](CC(C)C)NC(=O)[C@H](CCCN)NC(=O)[C@H](Cc3ccc(OCC(=O)O)cc3)NC(=O)[C@H](Cc3ccc(-c4ccccc4)cc3)NC(=O)[C@H](Cc3ccc(OCC(=O)O)cc3)NC2=O)c1 [Compound 3634] ({CH2CO}-[Dab]Y(Carboxymethyl)D[Phe(3-Me)]Y(Carboxymethyl)[Bip]Y(Carboxymethyl)[Orn][dL][Dab][Cha][Val(3-OH)][Orn]C[Dab][Aun]-OH; thioether N-14) | 0.0063
CCCC[C@H]1C(=O)N[C@@H](Cc2ccc(OCC(=O)O)cc2)C(=O)N[C@@H](CC(=O)O)C(=O)N[C@@H](Cc2cccc(C)c2)C(=O)N[C@@H](Cc2ccc(OCC(=O)O)cc2)C(=O)N[C@@H](Cc2ccc(-c3ccccc3)cc2)C(=O)N[C@@H](Cc2ccc(OCC(=O)O)cc2)C(=O)N[C@@H](CCCN)C(=O)N[C@H](CC(C)C)C(=O)N[C@@H](CCN)C(=O)N[C@@H](CC2CCCCC2)C(=O)N[C@@H](C(C)(C)O)C(=O)N[C@@H](CO)C(=O)N[C@H](C(=O)N[C@@H](CCN)C(=O)NCCCCCCCCCCC(=O)O)CSCC(=O)N1C [Compound 3635] ({CH2CO}-[NMeNle]Y(Carboxymethyl)D[Phe(3-Me)]Y(Carboxymethyl)[Bip]Y(Carboxymethyl)[Orn][dL][Dab][Cha][Val(3-OH)]SC[Dab][Aun]-OH; thioether N-14) | 0.0349
Cc1cccc(C[C@@H]2NC(=O)[C@H](CC(=O)O)NC(=O)[C@H](Cc3ccc(OCC(=O)O)cc3)NC(=O)[C@H](CCN)NC(=O)CSC[C@@H](C(=O)N[C@@H](CCN)C(=O)N[C@@H](CO)C(=O)NCCCCCCCCCCCC(=O)O)NC(=O)[C@H](CCCN)NC(=O)[C@H](C(C)O)NC(=O)[C@H](CC3CCCCC3)NC(=O)[C@H](CCN)NC(=O)[C@@H](CC(C)C)NC(=O)[C@H](CCCN)NC(=O)[C@H](Cc3ccc(OCC(=O)O)cc3)NC(=O)[C@H](Cc3ccc(-c4ccccc4)cc3)NC(=O)[C@H](Cc3ccc(OCC(=O)O)cc3)NC2=O)c1 (stereo partly drawn) [Compound 3636] ({CH2CO}-[Dab]Y(Carboxymethyl)D[Phe(3-Me)]Y(Carboxymethyl)[Bip]Y(Carboxymethyl)[Orn][dL][Dab][Cha][Thr(3ξ)][Orn]C[Dab]S[12Ado]-OH; thioether N-14) | 0.0209
CC(=O)NCCCC[C@@H]1NC(=O)[C@H](Cc2ccc(-c3ccccc3)cc2)NC(=O)[C@H](Cc2ccc(O)cc2)NC(=O)[C@H](Cc2cccc(C)c2)NC(=O)[C@H](CC(=O)O)NC(=O)[C@H](Cc2ccc(OCC(=O)O)cc2)NC(=O)[C@H](CCN)NC(=O)CSC[C@@H](C(=O)N[C@@H](CCN)C(=O)N[C@@H](CO)C(=O)NCCCCCCCCCCCC(=O)O)NC(=O)[C@H](CCCCN)NC(=O)[C@H](C(C)O)NC(=O)[C@H](CC2CCCCC2)NC(=O)[C@H](CCN)NC(=O)[C@@H](CC(C)C)NC(=O)[C@H](CCCN)NC1=O (stereo partly drawn) [Compound 3637] ({CH2CO}-[Dab]Y(Carboxymethyl)D[Phe(3-Me)]Y[Bip]K(Ac)[Orn][dL][Dab][Cha][Thr(3ξ)]KC[Dab]S[12Ado]-OH; thioether N-14) | 0.0291
CC(=O)NCCCC[C@@H]1NC(=O)[C@H](Cc2ccc(-c3ccccc3)cc2)NC(=O)[C@H](Cc2ccc(O)cc2)NC(=O)[C@H](Cc2cccc(C)c2)NC(=O)[C@H](CC(=O)O)NC(=O)[C@H](Cc2ccc(OCC(=O)O)cc2)NC(=O)[C@H](CCN)NC(=O)CSC[C@@H](C(=O)N[C@@H](CCCN)C(=O)N[C@@H](CO)C(=O)NCCCCCCCCCCC(=O)O)NC(=O)[C@H](CCC(=O)O)NC(=O)[C@H](C(C)O)NC(=O)[C@H](CC2CCCCC2)NC(=O)[C@H](CCN)NC(=O)[C@@H](CC(C)C)NC(=O)[C@H](CCCN)NC1=O (stereo partly drawn) [Compound 3638] ({CH2CO}-[Dab]Y(Carboxymethyl)D[Phe(3-Me)]Y[Bip]K(Ac)[Orn][dL][Dab][Cha][Thr(3ξ)]EC[Orn]S[Aun]-OH; thioether N-14) | 0.0709
Cc1cccc(C[C@@H]2NC(=O)[C@H](CC(=O)O)NC(=O)[C@H](Cc3ccc(OCC(=O)O)cc3)NC(=O)[C@H](CC(N)=O)NC(=O)CSC[C@@H](C(=O)N[C@@H](CCN)C(=O)NCCCCCCCCCCC(=O)O)NC(=O)[C@H](CO)NC(=O)[C@H](C(C)O)NC(=O)[C@H](CC3CCCCC3)NC(=O)[C@H](CCN)NC(=O)[C@@H](CC(C)C)NC(=O)[C@H](CCCN)NC(=O)[C@H](Cc3ccc(OCC(=O)O)cc3)NC(=O)[C@H](Cc3ccc(-c4ccccc4)cc3)NC(=O)[C@H](Cc3ccc(OCC(=O)O)cc3)NC2=O)c1 (stereo partly drawn) [Compound 3639] ({CH2CO}-NY(Carboxymethyl)D[Phe(3-Me)]Y(Carboxymethyl)[Bip]Y(Carboxymethyl)[Orn][dL][Dab][Cha][Thr(3ξ)]SC[Dab][Aun]-OH; thioether N-14) | 0.0105
Cc1cccc(C[C@@H]2NC(=O)[C@H](CC(=O)O)NC(=O)[C@H](Cc3ccc(O)cc3)NC(=O)[C@@H](CCCNC(=N)N)NC(=O)CSC[C@@H](C(=O)N[C@@H](CCN)C(=O)NCCCCCCCCCCC(=O)O)NC(=O)[C@H](CO)NC(=O)[C@H](C(C)(C)O)NC(=O)[C@H](CC3CCCCC3)NC(=O)[C@H](CCN)NC(=O)[C@@H](CC(C)C)NC(=O)[C@H](CCCN)NC(=O)[C@H](Cc3ccc(OCC(=O)O)cc3)NC(=O)[C@H](Cc3ccc(-c4ccccc4)cc3)NC(=O)[C@H](Cc3ccc(OCC(=O)O)cc3)NC2=O)c1 [Compound 3640] ({CH2CO}-[dR]YD[Phe(3-Me)]Y(Carboxymethyl)[Bip]Y(Carboxymethyl)[Orn][dL][Dab][Cha][Val(3-OH)]SC[Dab][Aun]-OH; thioether N-14) | 0.011
